How the values were obtained:
glucose oxidase = biological target: T1, glucose oxidase (Aspergillus niger, UniProt P13006); test: Kinetic studies of the blue dye with oxidases (Michaelis-Menten constant); format: biochemical; settings: compared with lactate oxidase and xanthine oxidase
T1 construct: purchased Sigma (St. Louis, Mo.)

[1] = Sensitivity of the dye / its absorption characteristics to pH variation; format: physicochemical; settings: products of chemical oxidation by ceric sulfate or iodine/KI
Source text: It was also noted that the DMFeCp2 -hp-β-CD complex stored at room temperature began to turn green, indicating a preference toward the oxidized state. As also reported, 15 the redox potential of DMFeCp2 is lowest (100 mV) among several known ferrocene-related compounds and this may contribute to the stability of DMFeCp2^+ in comparison to FeCp2^+. Both forms of ferricinium were insensitive to pH variation from 2-11. This characteristic is of advantage since the assay can be performed regardless of some fluctuation in pH and is applicable for a variety of oxidases with different pH optima. Due to the instability of the concentrated FeCp2^+, further studies focused on the electrochemically produced DMFeCp2^+.
Both FeCp2 and DMFeCp2 were oxidized by ceric sulfate or iodine/KI to FeCp2 H^+, (ferrocenonium) and DMFeCp2 H^+ (1,1'-dimethylferrocenonium), respectively. The reaction was almost instantaneous and the spectra of these two cation species were identical to those of ferricinium and 1,1'-dimethylferricinium. […] Such results were not completely unexpected since in strong acid media ferrocene was reported to undergo extensive protonation on the metal atom.

[2] = water; cited from earlier work
[3] = prepared with soluble bilirubin oxidase, stored at 4° C.
Procedure: During the time course of oxidation, the current decreased and the solution turned from yellow to green and finally to dark blue. The development of the blue color was monitored at the absorption maximum for FeCp2^+ at 620 nm or DMFeCp2^+ at 650 nM (FIG. 2 A, B).
The enzyme was destroyed by lowering the pH to 2.5 and after 2 min incubation, the pH was readjusted to 6.8. […] It should be noted that the absorption characteristics of the blue dye were not affected by a pH variation from 2.5 to 11.

T1 sequence (P13006 17-605): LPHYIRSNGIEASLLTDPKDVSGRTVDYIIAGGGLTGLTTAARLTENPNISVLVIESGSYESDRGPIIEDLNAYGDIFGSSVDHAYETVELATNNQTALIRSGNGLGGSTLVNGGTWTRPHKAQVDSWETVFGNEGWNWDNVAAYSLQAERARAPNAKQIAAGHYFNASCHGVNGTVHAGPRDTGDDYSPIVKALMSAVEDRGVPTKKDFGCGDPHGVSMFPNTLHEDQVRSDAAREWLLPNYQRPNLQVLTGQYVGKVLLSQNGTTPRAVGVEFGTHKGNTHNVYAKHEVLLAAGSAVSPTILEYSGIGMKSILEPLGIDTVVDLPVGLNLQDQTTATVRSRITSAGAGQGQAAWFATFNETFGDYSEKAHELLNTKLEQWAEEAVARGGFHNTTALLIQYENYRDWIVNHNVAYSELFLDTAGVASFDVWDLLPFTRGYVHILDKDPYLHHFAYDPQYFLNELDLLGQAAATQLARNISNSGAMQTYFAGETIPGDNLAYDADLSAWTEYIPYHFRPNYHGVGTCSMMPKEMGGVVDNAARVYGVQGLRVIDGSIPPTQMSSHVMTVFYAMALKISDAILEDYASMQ

Compound | stability against changes in pH [1] | solubility of the cyclodextrin in aqueous solutions [2] | also measured
1,1'-dimethylferricinium [DMFeCp2^+] |  |  | Michaelis-Menten constant for the blue dye (glucose oxidase): noticeably higher
CC1C=CC=C1.C[c-]1cccc1.[Fe+2] [DMFeCp2 H^+, 1,1'-dimethylferrocenonium] | not stable against changes in pH |  | 
OC[C@H]1O[C@@H]2O[C@H]3[C@H](O)[C@@H](O)[C@@H](O[C@H]4[C@H](O)[C@@H](O)[C@@H](O[C@H]5[C@H](O)[C@@H](O)[C@@H](O[C@H]6[C@H](O)[C@@H](O)[C@@H](O[C@H]7[C@H](O)[C@@H](O)[C@@H](O[C@H]1[C@H](O)[C@H]2O)O[C@@H]7CO)O[C@@H]6CO)O[C@@H]5CO)O[C@@H]4CO)O[C@@H]3CO [α-CD, α-cyclodextrin] |  | 12-16 % w/v | 
ferricinium [FeCp2^+] |  |  | time stable [3]: 2 months
2-hydroxypropyl-β-cyclodextrin [Hp-β-CD] |  | 50 % w/v | 
ferrocenonium [FeCp2 H^+] | not stable against changes in pH |  | 

Source: patent US5432274A, “Redox dye and method of preparation thereof using 2-hydroxypropyl-β-cyclodextrin and 1,1'-dimethylferrocene” (National Research Council of Canada, priority 1993, dated 1995)
